Experimental data reported in a compilation of properties of binary mixtures (doi:10.1016/j.molliq.2017.03.036).

Experiment: xn = mol fraction of the nth substance listed
Conditions: 101 kPa

CC(=O)[O-].CC[n+]1ccn(C)c1 + CN(CCO)CCO
Conditions | electrical conductivity [S/m] | viscosity [mPa·s]
288.15 K, x1 = 0.1002 | 0.01 | 144.1
288.15 K, x1 = 0.2997 | 0.048 | 155.8
288.15 K, x1 = 0.4001 | 0.059 | 163
288.15 K, x1 = 0.5998 | 0.075 | 193
288.15 K, x1 = 0.7003 | 0.087 | 203
288.15 K, x1 = 0.7998 | 0.103 | 217
288.15 K, x1 = 0.8999 | 0.124 | 236
288.15 K, x1 = 1 | 0.151 | 288
293.15 K, x1 = 0.1002 | 0.014 | 107.2
293.15 K, x1 = 0.2002 | 0.044 | 112.8
293.15 K, x1 = 0.2997 | 0.059 | 118.3
293.15 K, x1 = 0.4995 | 0.085 | 128.7
293.15 K, x1 = 0.5998 | 0.099 | 140.6
293.15 K, x1 = 0.7003 | 0.116 | 147.3
293.15 K, x1 = 0.7998 | 0.138 | 154.8
293.15 K, x1 = 0.8999 | 0.169 | 170
293.15 K, x1 = 1 | 0.201 | 197
298.15 K, x1 = 0.1002 | 0.019 | 80.3
298.15 K, x1 = 0.2002 | 0.054 | 85.1
298.15 K, x1 = 0.2997 | 0.073 | 88.7
298.15 K, x1 = 0.4001 | 0.089 | 93.2
298.15 K, x1 = 0.5998 | 0.13 | 106.5
298.15 K, x1 = 0.7003 | 0.152 | 110.8
298.15 K, x1 = 0.7998 | 0.184 | 114.1
298.15 K, x1 = 0.8999 | 0.227 | 127.2
298.15 K, x1 = 1 | 0.278 | 140
303.15 K, x1 = 0.1002 | 0.025 | 60.8
303.15 K, x1 = 0.2997 | 0.091 | 68.6
303.15 K, x1 = 0.4001 | 0.115 | 71.9
303.15 K, x1 = 0.4995 | 0.148 | 75.7
303.15 K, x1 = 0.7003 | 0.204 | 83.8
303.15 K, x1 = 0.7998 | 0.242 | 86.6
303.15 K, x1 = 0.8999 | 0.295 | 95.8
308.15 K, x1 = 0.1002 | 0.032 | 47.2
308.15 K, x1 = 0.2002 | 0.079 | 50.7
308.15 K, x1 = 0.2997 | 0.11 | 53.3
308.15 K, x1 = 0.4001 | 0.143 | 56.1
308.15 K, x1 = 0.4995 | 0.185 | 59.9
308.15 K, x1 = 0.5998 | 0.217 | 64.3
308.15 K, x1 = 0.7003 | 0.271 | 65.4
308.15 K, x1 = 0.7998 | 0.315 | 66.8
308.15 K, x1 = 1 | 0.461 | 78.3
313.15 K, x1 = 0.1002 | 0.04 | 37.2
313.15 K, x1 = 0.2002 | 0.093 | 40.3
313.15 K, x1 = 0.2997 | 0.134 | 42.9
313.15 K, x1 = 0.4001 | 0.175 | 45
313.15 K, x1 = 0.5998 | 0.273 | 51.7
313.15 K, x1 = 0.8999 | 0.486 | 58.1
313.15 K, x1 = 1 | 0.585 | 60.4
318.15 K, x1 = 0.2002 | 0.112 | 32
318.15 K, x1 = 0.2997 | 0.163 | 34.3
318.15 K, x1 = 0.4001 | 0.215 | 36.4
318.15 K, x1 = 0.4995 | 0.28 | 39.7
318.15 K, x1 = 0.5998 | 0.342 | 41.3
318.15 K, x1 = 0.7998 | 0.505 | 43.7
323.15 K, x1 = 0.2002 | 0.132 | 26.1
323.15 K, x1 = 0.2997 | 0.194 | 27.3
323.15 K, x1 = 0.4001 | 0.259 | 29.8
323.15 K, x1 = 0.4995 | 0.344 | 32.7
323.15 K, x1 = 0.5998 | 0.423 | 33.9
323.15 K, x1 = 0.7003 | 0.519 | 35.1
323.15 K, x1 = 0.7998 | 0.624 | 35.9
323.15 K, x1 = 0.8999 | 0.736 | 38.3
328.15 K, x1 = 0.2002 | 0.157 | 21.4
328.15 K, x1 = 0.2997 | 0.23 | 22.8
328.15 K, x1 = 0.4001 | 0.311 | 25
328.15 K, x1 = 0.7003 | 0.628 | 28.7
328.15 K, x1 = 0.7998 | 0.763 | 29.4
328.15 K, x1 = 0.8999 | 0.886 | 30.8
328.15 K, x1 = 1 | 1.06 | 31.2
333.15 K, x1 = 0.1002 | 0.09 | 15.76
333.15 K, x1 = 0.2002 | 0.184 | 17.9
333.15 K, x1 = 0.2997 | 0.273 | 19.4
333.15 K, x1 = 0.4001 | 0.371 | 20.6
333.15 K, x1 = 0.4995 | 0.495 | 22
333.15 K, x1 = 0.5998 | 0.628 | 23
333.15 K, x1 = 0.7003 | 0.755 | 23.8
333.15 K, x1 = 0.7998 | 0.909 | 24.5
338.15 K, x1 = 0.1002 | 0.108 | 13
338.15 K, x1 = 0.2002 | 0.215 | 14.46
338.15 K, x1 = 0.2997 | 0.322 | 16.9
338.15 K, x1 = 0.4001 | 0.437 | 17.3
338.15 K, x1 = 0.4995 | 0.583 | 18.7
338.15 K, x1 = 0.5998 | 0.742 | 19.3
338.15 K, x1 = 0.7003 | 0.896 | 19.9
338.15 K, x1 = 0.7998 | 1.08 | 20.5
338.15 K, x1 = 0.8999 | 1.25 | 21.1
338.15 K, x1 = 1 | 1.47 | 21.8
343.15 K, x1 = 0.1002 | 0.126 | 10.85
343.15 K, x1 = 0.2002 | 0.249 | 12.19
343.15 K, x1 = 0.2997 | 0.377 | 14.5
343.15 K, x1 = 0.4995 | 0.684 | 16.1
343.15 K, x1 = 0.5998 | 0.882 | 16.6
343.15 K, x1 = 0.7003 | 1.05 | 17.3
343.15 K, x1 = 0.7998 | 1.26 | 17.7
343.15 K, x1 = 0.8999 | 1.46 | 18.2
343.15 K, x1 = 1 | 1.71 | 18.8
348.15 K, x1 = 0.1002 | 0.148 | 9.17
348.15 K, x1 = 0.2002 | 0.287 | 10.36
348.15 K, x1 = 0.2997 | 0.441 | 12.49
348.15 K, x1 = 0.4001 | 0.605 | 12.74
348.15 K, x1 = 0.5998 | 1.04 | 14.22
348.15 K, x1 = 0.7003 | 1.22 | 14.67
348.15 K, x1 = 0.7998 | 1.46 | 15.22
348.15 K, x1 = 0.8999 | 1.68 | 15.69
348.15 K, x1 = 1 | 1.96 | 16.01
353.15 K, x1 = 0.1002 | 0.172 | 8.38
353.15 K, x1 = 0.2997 | 0.511 | 10.86
353.15 K, x1 = 0.4001 | 0.7 | 11.03
353.15 K, x1 = 0.4995 | 0.919 | 12.24
353.15 K, x1 = 0.7003 | 1.42 | 13.06
353.15 K, x1 = 0.8999 | 1.93 | 13.8
353.15 K, x1 = 1 | 2.22 | 14.07
